Reference: patent US20090047365A1, “Novel Concomitant Use of Sulfonamide Compound with Anti-Cancer Agent” (Eisai R & D Management Co., Ltd., priority 2005, published 2009)

Key:
[1] = tested on: human colon cancer cell line Colo320DM; assay: subcutaneous transplant model of human colon cancer cell line (Colo320DM), E7820 and CPT-11; conditions: Colo320DM nude mouse; E7820 50 mg/kg twice a day, two weeks, oral; CPT-11 100 mg/kg once in four days x3, intravenous; control 11.99 ± 1.35
Method: Human colon cancer cell line Colo320DM (purchased from Dainippon Pharmaceutical) was cultured in RPMI1640 (containing 10% FBS) in a 5% carbon dioxide incubator at 37° C. to about 80% confluence, and the cells were collected with trypsin-EDTA. Using a phosphate buffer containing 50% matrigel, 7.5×10^7 cells/mL suspension was prepared, and 0.1 mL each of the resulting cell suspension was subcutaneously transplanted to a nude mouse at the side of its body. […] The major and minor axes of tumors were measured with Digimatic caliper (Mitsutoyo), and tumor volumes and relative tumor volumes were calculated according to the following formulae.
Tumor Volume TV=Major axis of tumor(mm)×(minor axis of tumor)^2(mm^2)/2
(§1) Relative Tumor Volume RTV=Tumor volume on measurement day/Tumor volume on the first administration day

[2] = tested on: human colon cancer cell line Colo320DM; assay: subcutaneous transplant model of human colon cancer cell line (Colo320DM), E7820 and Oxaliplatin; type: in vivo; conditions: Colo320DM nude mouse; E7820 50 mg/kg twice a day, two weeks, oral; Oxaliplatin 10 mg/kg once in four days x3, intravenous; control 11.99 ± 1.35
[3] = tested on: human pancreas cancer cell line KP-1; assay: subcutaneous transplant model of human pancreas cancer cell line (KP-1), E7820 and Gemcitabine; conditions: KP-1 nude mouse; E7820 50 mg/kg twice a day, three weeks, oral; Gemcitabine 200 mg/kg once in three days x4, intravenous; control 14.8 ± 2.28
Method: Human pancreas cancer cell line KP-1 (obtained from the National Kyushu Cancer Center) was cultured in RPMI1640 (containing 10% FBS) in a 5% carbon dioxide incubator at 37° C. to about 80% confluence, and the cells were collected with trypsin-EDTA. Using a phosphate buffer, 1×10^8 cells/mL suspension was prepared, and 0.11 mL each of the resulting cell suspension was subcutaneously transplanted to a nude mouse at the side of its body. […] The major and minor axes of tumors were measured with Digimatic caliper (Mitsutoyo), and tumor volumes and relative tumor volumes were calculated according to the following formulae.
Tumor Volume TV=Major axis of tumor(mm)×(Minor axis of tumor)^2(mm^2)/2
as §1

[4] = tested on: DNA-topoisomerase II mRNA; assay: quantification of DNA-topoisomerase II mRNA by RT-PCR; type: cell-based, human; conditions: HUVEC, 1 μM, six hours; untreated group 4.4 μg/ml
Method: 2×10^6 of human umbilical vein endothelial cells were seeded in a 25 cm^2 cell culture bottle and cultured in a CO2 incubator at 37° C. using a EGM-2 medium (Sanko Junyaku) overnight. On the following day, E7820 was added to give 1 μM. Six hours later, RNA was prepared from the cells. Specifically, the medium was removed from the cells. The cells were added with and dissolved in 3 ml of ISOGEN (Wako Pure Chemical Industries), added with an equal volume of CHCl3 and agitated. Then, the water phase was extracted. Half the amount of the water phase of isopropanol was added, left to stand for 5 minutes and centrifuged to collect the precipitate. The precipitate was washed with 70% ethanol, added with and dissolved in sterile water and absorbance at 260 nm was determined with a spectrophotometer to quantify the RNA amount.
Subsequently, TaqMan Gold RT-PCR kit (Applied Biosystems) was used to perform RT-PCR reaction. Specifically, 0.1 μg of RNA was added to 50 μl of the reaction solution, and subjected to reactions at 25° C. for 10 minutes, 48° C. for 30 minutes and 95° C. for 5 minutes to prepare cDNA. Then, a primer for determining DNA-topoisomerase II mRNA (ABI Taqman probe Hs00172214 ml) was used for PCR reaction and then ABI7700 (Applied Biosystems) was used for quantifying RNA amount.

[5] = tested on: HCT116 cells; assay: DNA microarray analysis (Example 8), correlation coefficients and hierarchical cluster analysis; type: cell-based, human; conditions: 24 hours treatment at twice the 50% growth inhibitory concentration, similarity among the compounds named together
Method: HCT116 cells were cultured in an RPMI-1640 medium supplemented with 10% fetal bovine serum, 100 units/ml penicillin and 100 μg/ml streptomycin. The following cultivation and compound treatment were carried out in an incubator at 5% CO2 and 37° C. HCT116 cells were seeded in 10 cm-diameter cell culture dishes at 2.0×10^6 cells/dish, cultured for 24 hours and subjected to the following compound treatment.
In this example, changes in the gene expression of HCT116 cells upon treatments with 12 compounds, i.e., E7820 (0.16 μM), E7070 (0.26 μM), LY186641 (59 μM), LY295501 (24 μM), LY-573636 (9.6 μM), CQS (4.0 μM), MST16 (100 μM), etoposide (3.6 μM), ethoxzolamide (410 μM), capsaicin (280 μM), trichostatin A (0.16 μM) and kenpaullone (7.1 μM) were examined.
The concentration of each compound used for the treatment was set to twice the 50% growth inhibitory concentration of each compound to the HCT116 cells (based on three days of antiproliferatrive activity using MTT). The cells were collected 24 hours after the treatment at the concentration indicated in parentheses following each compound name above. Similarly, cells cultured for 24 hours without the addition of any compound were also collected.
Total RNA extraction from the collected cells was performed using TRIZOL reagent (Invitrogen) according to the attached instruction.
Gene expression analysis using a DNA microarray was carried out in the same manner as “(2) Analysis of gene expression using DNA microarray” in Example 7.
This example was conducted for each sample in duplicate (for the convenience of the experiment, samples were given branch numbers like control-1, control-2, E7070-1, E7070-2 and so on for distinction). Then, GeneChip (Affymetrix) system (Human Focus array) was used for analyzing changes in the gene expression induced by each compound.
Twenty-six “.cel” files obtained in this example (13 samples (a control+12 compounds)×2) were subjected to RMA method (robust multi-array average method (Biostatistics (2003), 4, 249-264)) for normal distribution at probe level, and then the logarithm value of the signal intensity at gene level was calculated. Next, the logarithm value of the signal intensity of the untreated group (control-1) was subtracted from the logarithm value of the signal intensity of the compound-treated group for each gene to obtain the logarithm value of the signal ratio of the compound-treated group to control-1. Then, cosine correlation coefficients were calculated as correlation coefficients between the experiments (FIG. 5). Based on these correlation coefficients, hierarchical cluster analysis was performed according to UPGMA method (Unweighted Pair Group Method with Arithmetic mean method) (FIG. 6). Control-2 was also subjected to similar calculation (FIGS. 7 and 8). The softwares used were R 2.0.1 (http://www.r-project.org/) and affy package 1.5.8 (http://www.bioconductor.org).

Cc1ccc(NS(=O)(=O)c2cccc(C#N)c2)c2[nH]cc(C#N)c12 [E7820, N-(3-cyano-4-methyl-1H-indole-7-yl)-3-cyanobenzenesulfonamide]
Relative tumor volume on Day 15 Average ± standard deviation [1]: 7.05 ± 1.15 | Relative tumor volume on Day 15 Average ± standard deviation [2]: 7.05 ± 1.15 | Relative tumor volume on Day 22 Average ± standard deviation [3]: 8.81 ± 2.57 | amount of DNA-topoisomerase II mRNA [4]: 1.6 µg/mL | changes in gene expression (correlation coefficients, hierarchical cluster analysis) [5]: very similar genetic alterations
